Measurements published in the supplement of paper PMC10307832.

Key:
Assay in all cases: relative viability (nuclei count vs DMSO), 5 days (fraction); higher = more cells survive
[1] = compound: COC1=CC=C(C=C1)COC2=C(C=C(C=C2)CC3=CN=C(N=C3N)N)OC [GW-2580] + CS(=O)(=O)N1CCN(Cc2cc3nc(-c4cccc5[nH]ncc45)nc(N4CCOCC4)c3s2)CC1 [Pictilisib] (partner 1 µM)
Method in brief: (§1)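 Cells from lung cancer lines were seeded into 1536-well plates and, one day later, dosed by pin tool. Treatments were either a single drug or a fixed dose of an anchor drug with five library-drug doses (not always all listed) in √10 steps. After 5 days, nuclei were stained in a one-step fixation (final 0.05% Triton X-100, 1% formaldehyde, 1 ug/ml Hoechst) and counted on 4× images, and relative viability is the treated-to-vehicle nuclei ratio, as the median of duplicate plates.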

[2] = compound: COC1=CC=C(C=C1)COC2=C(C=C(C=C2)CC3=CN=C(N=C3N)N)OC [GW-2580] + Cc1cc(Nc2cc(N3CCN(C)CC3)nc(Sc3ccc(NC(=O)C4CC4)cc3)n2)n[nH]1 [Tozasertib] (partner 0.1 µM)
Method in brief: as §1

[3] = compound: COC1=CC=C(C=C1)COC2=C(C=C(C=C2)CC3=CN=C(N=C3N)N)OC [GW-2580] + C[C@]1(O)C[C@@H](c2nc(-c3ccc4ccc(-c5ccccc5)nc4c3)c3c(N)nccn32)C1 [Linsitinib] (partner 1 µM)
Method in brief: as §1

[4] = compound: COC1=CC=C(C=C1)COC2=C(C=C(C=C2)CC3=CN=C(N=C3N)N)OC [GW-2580] + COc1cccc2cc(-c3nc([C@H]4CC[C@H](C(=O)O)CC4)n4ncnc(N)c34)[nH]c12 [OSI-027] (partner 0.5 µM)
Method in brief: as §1

[5] = compound: COC1=CC=C(C=C1)COC2=C(C=C(C=C2)CC3=CN=C(N=C3N)N)OC [GW-2580] + C[C@@H](Oc1cc(-c2cnn(C3CCNCC3)c2)cnc1N)c1c(Cl)ccc(F)c1Cl [Crizotinib] (partner 1 µM)
Method in brief: as §1

| Cell Line | relative viability ([1]; first compound 0.08 µM) | relative viability ([1]; first compound 0.8 µM) | relative viability ([1]; first compound 2.53 µM) | relative viability ([1]; first compound 8 µM) | relative viability ([2]; first compound 0.08 µM) | relative viability ([2]; first compound 0.8 µM) | relative viability ([2]; first compound 2.53 µM) | relative viability ([2]; first compound 8 µM) | relative viability ([3]; first compound 0.08 µM) | relative viability ([3]; first compound 0.8 µM) | relative viability ([3]; first compound 2.53 µM) | relative viability ([3]; first compound 8 µM) | relative viability ([4]; first compound 0.08 µM) | relative viability ([4]; first compound 0.8 µM) | relative viability ([4]; first compound 2.53 µM) | relative viability ([4]; first compound 8 µM) | relative viability ([5]; first compound 0.08 µM) | relative viability ([5]; first compound 0.8 µM) | relative viability ([5]; first compound 2.53 µM) | relative viability ([5]; first compound 8 µM) |
| --- | --- | --- | --- | --- | --- | --- | --- | --- | --- | --- | --- | --- | --- | --- | --- | --- | --- | --- | --- | --- |
| 201T | 0.601 | 0.701 | 0.67 | 0.68 | 0.998 | 0.935 | 0.96 | 0.82 | 1.06 | 1.14 | 1.14 | 1.06 | 0.647 | 0.994 | 1.09 | 0.797 | 1.04 | 1.06 | 1.07 | 0.993 |
| A549 | 0.575 | 0.491 | 0.486 | 0.303 | – | – | – | – | 0.678 | 0.701 | 0.501 | 0.602 | – | – | – | – | 0.722 | 0.878 | 0.737 | 0.543 |
| A-427 | 0.73 | 0.661 | 0.678 | 0.655 | 0.198 | 0.208 | 0.19 | 0.172 | 1.18 | 1.16 | 1.01 | 1.08 | 0.453 | 0.371 | 0.518 | 0.435 | 0.926 | 1.07 | 0.785 | 0.663 |
| ABC-1 | 0.761 | 0.564 | 0.571 | 0.679 | 0.157 | 0.147 | 0.179 | 0.193 | 0.791 | 0.816 | 0.883 | 0.718 | 0.471 | 0.533 | 0.502 | 0.53 | 1.1 | 1.3 | 0.901 | 0.783 |
| BEN | 0.612 | 0.602 | 0.451 | 0.515 | 0.684 | 0.396 | 0.577 | 0.492 | 1.08 | 1.04 | 0.816 | 0.93 | 0.281 | 0.273 | 0.267 | 0.31 | 0.937 | 1 | 0.785 | 0.958 |
| CAL-12T | 0.45 | 0.739 | 0.341 | 0.513 | 0.422 | 0.365 | 0.349 | 0.297 | 0.985 | 0.815 | 0.917 | 0.762 | 0.609 | 0.853 | 0.526 | 0.699 | 0.632 | – | 0.59 | 0.577 |
| COR-L23 | 0.834 | 0.969 | 0.695 | 0.888 | 0.209 | 0.202 | 0.179 | 0.185 | 0.987 | 1.2 | 0.946 | 1.02 | 1.01 | 0.994 | 0.655 | 0.753 | 0.808 | 0.684 | 0.549 | 0.562 |
| COR-L 105 | 0.36 | 0.404 | 0.353 | 0.375 | 0.317 | 0.311 | 0.352 | 0.387 | 1.03 | 0.807 | 0.929 | 1.01 | 0.662 | 0.807 | 0.713 | 0.676 | 0.782 | 0.827 | 0.787 | 0.677 |
| Calu-6 | 0.99 | 1.08 | 0.908 | 1.05 | – | – | – | – | 1.11 | 0.938 | 0.913 | 1.02 | – | – | – | – | 0.85 | 0.857 | 0.769 | 0.674 |
| ChaGo-K-1 | 0.735 | 1.15 | 0.526 | 0.655 | 0.257 | 0.224 | 0.233 | 0.234 | – | – | – | – | 0.625 | 0.548 | 0.532 | 0.575 | 1.08 | 1.21 | 1.18 | 1.07 |
| EBC-1 | 0.309 | 0.374 | 0.323 | 0.296 | – | – | – | – | 1.27 | 0.991 | 0.871 | 0.743 | – | – | – | – | 0.205 | 0.163 | 0.19 | 0.164 |
| EKVX | 0.395 | 0.448 | 0.395 | 0.5 | 0.553 | 0.428 | 0.313 | 0.321 | 0.983 | 1.18 | 0.884 | 1.04 | 0.692 | 0.755 | 0.73 | 0.67 | 1.09 | 1.52 | 0.979 | 0.935 |
| EMC-BAC-2 | 0.577 | 0.618 | 0.452 | 0.519 | 0.279 | 0.261 | 0.24 | 0.261 | 0.839 | 0.876 | 0.727 | 0.875 | 0.364 | 0.384 | 0.364 | 0.337 | 0.779 | 0.771 | 0.75 | 0.803 |
| EPLC-272H | 0.254 | 0.36 | 0.267 | 0.262 | 0.321 | 0.266 | – | 0.214 | 1.05 | 1.38 | 1.24 | 1.14 | 0.284 | 0.308 | – | 0.273 | 0.831 | 1.13 | 0.954 | 0.904 |
| H3255 | 0.534 | 0.471 | 0.419 | 0.464 | 0.619 | 0.217 | 0.664 | 0.47 | 0.98 | 1.03 | 1.08 | 0.796 | 0.577 | 0.606 | 0.622 | 0.595 | 0.837 | 0.963 | 0.744 | 0.914 |
| HARA | 0.459 | 0.513 | 0.344 | 0.405 | 0.111 | 0.127 | 0.0978 | 0.0792 | 1.09 | 1.06 | 1.08 | 0.845 | 0.504 | 0.452 | 0.491 | 0.395 | 1.15 | 1.05 | 1.12 | 0.939 |
| HCC-15 | 0.79 | 0.824 | 0.653 | 0.677 | 0.489 | 0.562 | 0.615 | 0.222 | 0.989 | 1.02 | 0.834 | 0.785 | 0.743 | 0.787 | 0.596 | 0.656 | 0.961 | 0.956 | 0.775 | 0.751 |
